Measurements as given in patent US12661342B2, “Heteroaryl compounds and therapeutic uses thereof in conditions associated with the alteration of the activity of beta-glucocerebrosidase” (GT GAIN THERAPEUTICS SA, priority 2019, dated 2026).

Each compound was assayed against T1, β-glucocerebrosidase (Homo sapiens, UniProt P04062, L483P) (assay: Enhancement of β-glucocerebrosidase activity measured in Gaucher disease fibroblasts (4-MU-β-D-glucopyranoside substrate, intact cells)). Settings: GBA fibroblasts bearing L444P (GM08760A, homozygous p.L444P); compound at concentrations between 6 and 50 μM; 4 days incubation.
T1 construct: host or cells: human Gaucher disease patient fibroblasts GM08760A
T1 sequence (P04062 40-536 L483P): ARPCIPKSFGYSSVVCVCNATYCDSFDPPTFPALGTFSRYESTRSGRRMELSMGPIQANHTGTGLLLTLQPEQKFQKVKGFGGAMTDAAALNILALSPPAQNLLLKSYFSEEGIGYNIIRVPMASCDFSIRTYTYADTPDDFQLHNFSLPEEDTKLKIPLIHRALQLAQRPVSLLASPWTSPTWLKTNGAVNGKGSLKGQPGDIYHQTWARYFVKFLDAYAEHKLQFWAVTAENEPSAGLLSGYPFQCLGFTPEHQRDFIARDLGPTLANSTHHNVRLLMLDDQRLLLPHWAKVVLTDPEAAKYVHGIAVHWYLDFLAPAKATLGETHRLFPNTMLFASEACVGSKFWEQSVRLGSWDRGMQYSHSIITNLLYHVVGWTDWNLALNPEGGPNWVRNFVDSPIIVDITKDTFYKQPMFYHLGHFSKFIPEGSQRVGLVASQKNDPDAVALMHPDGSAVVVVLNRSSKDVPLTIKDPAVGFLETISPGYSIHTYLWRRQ
Type: cell-based
Parameters: key: Increase in comparison with non-treated of >2.0 fold is shown as A; Increase in comparison with non-treated of >1.7-2.0 fold is shown as B; Increase in comparison with non-treated of 1.2-1.7 fold is shown as C; D means that no increase compared with non-treated cells was detected in this method
In short: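 Patient fibroblasts homozygous for p.L444P (GM08760A), grown in DMEM/10% FBS and exposed to compound for 4 days. Intact cells then given 4-MU-β-D-glucopyranoside in 0.1 M acetate pH 4, 1 h, 37 °C; stopped at pH 10.7, 4-MU fluorescence ex 340/em 460. Value is fold increase over untreated cells; binned at 6–50 μM.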

Row | Structure (SMILES) | Range: increase in enzyme activity in comparison with non-treated cells (Enzyme activity assay for compounds of Examples 33-141) | Range: increase in enzyme activity in comparison with non-treated cells (Enzyme activity assay for exemplified compounds)
1 | COc1ccccc1Nc1cc(N)nc(C(=O)N(C)c2ccccc2)c1 [Example 50, 6-Amino-4-((2-methoxyphenyl)amino)-N-methyl-N-phenylpicolinamide] | D | 
2 | COc1ccccc1Nc1cc(N)cc(C(=O)N2Cc3ccccc3C2)n1 [Example 96, (6-(2-Methoxyphenylamino)-4-aminopyridin-2-yl)(isoindolin-2-yl)methanone] | C (Increase in comparison with non-treated of 1.2-1.7 fold is shown as C) | 
3 | COc1cccc(Nc2cc(N)cc(C(=O)NC3Cc4ccccc4C3)n2)c1 [Example 100, 4-Amino-N-(2,3-dihydro-1H-inden-2-yl)-6-((3-methoxyphenyl)amino)picolinamide] | A (Increase in comparison with non-treated of >2.0 fold is shown as A) | 
4 | Cc1ccc(Nc2nc(N)cc(C(=O)NC3CCc4ccccc4C3)n2)cc1 (centres unmarked) [Example 22, 6-Amino-N-(1,2,3,4-tetrahydronaphthalen-2-yl)-2-(p-tolylamino)pyrimidine-4-carboxamide] |  | A (Increase in comparison with non-treated of >2.0 fold is shown as A)
5 | COc1ccccc1Nc1nc(N)nc(C(=O)NC2CCc3ccccc3C2)n1 (centres unmarked) [Example 20, 4-Amino-6-((2-methoxyphenyl)amino)-N-(1,2,3,4-tetrahydronaphthalen-2-yl)-1,3,5-triazine-2-carboxamide] |  | C (Increase in comparison with non-treated of 1.2-1.7 fold is shown as C)
6 | Nc1cc(Nc2ccccc2O)cc(C(=O)N2Cc3ccccc3C2)n1 [Example 58, (6-Amino-4-((2-hydroxyphenyl)amino)pyridin-2-yl)(isoindolin-2-yl)methanone] | B (Increase in comparison with non-treated of >1.7-2.0 fold is shown as B) | 
7 | Nc1cc(Nc2cccc3c2OCO3)cc(C(=O)NC2Cc3ccccc3C2)n1 [Example 123, 6-Amino-4-(benzo[d][1,3]dioxol-4-ylamino)-N-(2,3-dihydro-1H-inden-2-yl)picolinamide] | C (Increase in comparison with non-treated of 1.2-1.7 fold is shown as C) | 
8 | Nc1cc(C(=O)NC2Cc3ccccc3C2)cc(Nc2ccccc2O)n1 [Example 47, 2-Amino-N-(2,3-dihydro-1H-inden-2-yl)-6-((2-hydroxyphenyl)amino)isonicotinamide] | C (Increase in comparison with non-treated of 1.2-1.7 fold is shown as C) | 
9 | Nc1cc(Nc2ccccc2O)cc(C(=O)NC2CCc3ccccc3C2)n1 (centres unmarked) [Example 127, 6-Amino-4-((2-hydroxyphenyl)amino)-N-(1,2,3,4-tetrahydronaphthalen-2-yl)picolinamide] | B (Increase in comparison with non-treated of >1.7-2.0 fold is shown as B) | 
10 | COc1cccc(Nc2nc(N)nc3c2CCN(Cc2ccccc2)C3)c1 [Example 23, 7-Benzyl-N4-(3-methoxyphenyl)-5,6,7,8-tetrahydropyrido[3,4-d]pyrimidine-2,4-diamine] |  | C (Increase in comparison with non-treated of 1.2-1.7 fold is shown as C)
11 | CN(C(=O)c1cc(Nc2ccccc2O)cc(N)n1)c1ccccc1 [Example 128, 6-Amino-4-((2-hydroxyphenyl)amino)-N-methyl-N-phenylpicolinamide] | C (Increase in comparison with non-treated of 1.2-1.7 fold is shown as C) | 
12 | Nc1cc(Nc2ccccc2F)nc(C(=O)Nc2ccc3c(c2)OCCO3)c1 [Example 111, 4-Amino-N-(2,3-dihydrobenzo[b][1,4]dioxin-6-yl)-6-((2-fluorophenyl)amino)picolinamide] | A (Increase in comparison with non-treated of >2.0 fold is shown as A) | 
13 | CN(Cc1ccccc1)C(=O)c1cc(N)nc(N[C@H]2CCCC[C@@H]2O)n1 [Example 15, 6-Amino-N-benzyl-2-(((1S,2S)-2-hydroxycyclohexyl)amino)-N-methylpyrimidine-4-carboxamide] |  | D
14 | CN(C(=O)c1cc(N)cc(Nc2cccc(F)c2)n1)C1Cc2ccccc2C1 [Example 107, 4-Amino-N-(2,3-dihydro-1H-inden-2-yl)-6-((3-fluorophenyl)amino)-N-methylpicolinamide] | C (Increase in comparison with non-treated of 1.2-1.7 fold is shown as C) | 
15 | Nc1cc(C(=O)N2Cc3ccccc3C2)nc(Nc2cccc(O)c2)n1 [Example 39, (6-Amino-2-((3-hydroxyphenyl)amino)pyrimidin-4-yl)(isoindolin-2-yl)methanone] | C (Increase in comparison with non-treated of 1.2-1.7 fold is shown as C) | 
16 | Nc1cc(C(=O)NC2Cc3ccccc3C2)nc(Nc2ccccc2O)n1 [Example 13, 6-Amino-N-(2,3-dihydro-1H-inden-2-yl)-2-((2-hydroxyphenyl)amino)pyrimidine-4-carboxamide] |  | C (Increase in comparison with non-treated of 1.2-1.7 fold is shown as C)
17 | Nc1cc(C(=O)N2CCN(c3ccccc3)CC2)nc(N[C@H]2CCCC[C@@H]2O)n1 [Example 14, (6-Amino-2-(((1S,2S)-2-hydroxycyclohexyl)amino)pyrimidin-4-yl)(4-phenylpiperazin-1-yl)methanone] |  | D
18 | Nc1cc(C(=O)N2Cc3ccccc3C2)nc(Nc2ccccc2O)n1 [Example 8, (6-Amino-2-((2-hydroxyphenyl)amino)pyrimidin-4-yl)(isoindolin-2-yl)methanone] |  | C (Increase in comparison with non-treated of 1.2-1.7 fold is shown as C)
19 | Nc1cc(Nc2ccccn2)cc(C(=O)Nc2ccccc2)n1 [Example 79, 6-Amino-N-phenyl-4-(pyridin-2-ylamino)pyridine-2-carboxamide] | C (Increase in comparison with non-treated of 1.2-1.7 fold is shown as C) | 
20 | COc1cccc(Nc2nc(N)c3c(n2)CN(Cc2ccccc2)CC3)c1 [Example 27, 7-Benzyl-N^2-(3-methoxyphenyl)-5,6,7,8-tetrahydropyrido[3,4-d]pyrimidine-2,4-diamine] |  | A (Increase in comparison with non-treated of >2.0 fold is shown as A)
21 | Cc1ccc(Nc2nc(N)cc(C(=O)N3CCN(c4ccccc4)CC3)n2)cc1 [Example 3, (6-Amino-2-(p-tolylamino)pyrimidin-4-yl)(4-phenylpiperazin-1-yl)methanone] |  | C (Increase in comparison with non-treated of 1.2-1.7 fold is shown as C)
22 | COc1ccccc1Nc1cc(N)cc(C(=O)Nc2ccccc2)n1 [Example 93, 4-Amino-6-((2-methoxyphenyl)amino)-N-phenylpicolinamide] | B (Increase in comparison with non-treated of >1.7-2.0 fold is shown as B) | 
23 | COc1ccc(Nc2nc(N)c3c(n2)CN(Cc2ccccc2)CC3)cc1 [Example 30, 7-Benzyl-N2-(4-methoxyphenyl)-5,6,7,8-tetrahydropyrido[3,4-d]pyrimidine-2,4-diamine] |  | C (Increase in comparison with non-treated of 1.2-1.7 fold is shown as C)
24 | Nc1cc(Nc2ccccc2O)nc(C(=O)N2CCN(c3ccccc3)CC2)c1 [Example 88, (4-Amino-6-((2-hydroxyphenyl)amino)pyridin-2-yl)(4-phenylpiperazin-1-yl)methanone] | C (Increase in comparison with non-treated of 1.2-1.7 fold is shown as C) | 
25 | N#Cc1ccccc1Nc1cc(N)cc(C(=O)NC2Cc3ccccc3C2)n1 [Example 99, 4-Amino-6-((2-cyanophenyl)amino)-N-(2,3-dihydro-1H-inden-2-yl)picolinamide] | D | 
26 | COc1cccc(Nc2cc(N)nc(C(=O)NC3Cc4ccccc4C3)c2)c1.Cl [Example 141, 6-Amino-N-(2,3-dihydro-1H-inden-2-yl)-4-((3-methoxyphenyl)amino)picolinamide hydrochloride] | C (Increase in comparison with non-treated of 1.2-1.7 fold is shown as C) | 
